Reference: patent US20020147175A1, “Synergistic ECTA compositions” (priority 2000, published 2002)

Legend:
Assay type in all cases: cell-based, human
[1] = system: MCF7TDX cells; test: 384-well alamarBlue interaction screening assay with NB1011; details: drug combined with NB1011, 5-day incubation, average of at least 4 consecutive dose/effect levels
Experimental: (§1) Normal human colon epithelial cells (CCD18co) and skin fibroblasts (Det551) were purchased from ATCC (Rockville, Md.). MCF7TDX, human breast carcinoma cells resistant to 2 μM Tomudex were obtained from Dr. Patrick Johnston, Queens University, Belfast. […] The MCF7TDX and the H630R10 cell lines have been previously described in Drake, J. C. et al., 1996 and Copur, S. et al., 1995, respectively.
(§2) All cells were cultured under standard conditions of 37° C., 95% humidified air, 5% CO2 in RPMI 1640 culture medium containing 10% fetal calf serum (Life Technologies) and penicillin/streptomycin/fungizone. MCF7TDX cells were maintained continuously in 2 μM Tomudex, and H630R10 cells were maintained continuously in 10 μM 5-FU. The medium was renewed or the cells were passaged about every three days to maintain optimal growth conditions. Normal cells were passaged a maximum of 15 times to avoid senescence.
(§3) 500 cells per well were transferred to a 384-well tissue culture plate (Corning Inc., Corning, N.Y.) and allowed to attach for 24 hours in standard culture conditions. Compounds were then applied in a bidirectional (checker board) pattern (Chou, T. C. and Talalay, P. 1984). Following a 5-day incubation, the redox indicator dye, alamarBlue (AccuMed International, Westlake, Ohio) was added to each well at a 10% v/v ratio, and fluorescence was monitored at 535 excitation, 595 emission. Cytotoxic effect levels and drug interactions were assessed by the combination index method (Chou, T. C. and Talalay, P. 1984 and Bible, K. C. et al. 1997), described briefly below.
(§4) Only experiments with linear correlation coefficients (r)>0.9 were accepted for analysis. A combination index (CI) was then calculated to assess synergism or antagonism according to the following equation which assumes an independent mechanism of drug action (mutual exclusivity):
(§5) CI=(D)1/(Dx)1+(D)2/(Dx)2+(D)1(D)2/(Dx)1(Dx)2 [Equation 2]
(§6) where (D)1 and (D)2 are the concentrations of drug 1 and drug 2 which combined produce x% inhibition, and (Dx)1 and(Dx)2 are the concentrations of each drug which alone produce x% inhibition. CI=1 indicates an additive interaction, CI<1 indicates synergy, and CI>1 indicates antagonism. For each experiment CI's from several different effect levels and concentrations of a constant molar ratio were averaged.
(§7) In general, a combination index of <1 indicates synergy, ˜1 indicates additivity, and >1 indicates antagonism (Pegram, M. D. et al. (1999)).

[2] = system: Det551 normal skin fibroblasts; test: 96-well crystal violet combination cytotoxicity assay with NB1011; details: for Average combination index (CI): drug combined with NB1011 at constant molar ratio, Det551 normal cells, 96-well crystal violet, 72 hour incubation; for Interaction: interaction with NB1011, Det551; as to interaction: key: Syn = synergy; Ant = antagonism; Add = additivity
Experimental: as §1, §2
(§8) Exponentially rowing cells were transferred at a density of 1.0−5.5×10^3 cells per well to a 96-well tissue culture plate and allowed to attach for 24 hours. Compounds were then applied in duplicate half log serial dilutions. Each compound was tested separately, and mixed together at a single molar ratio approximately equal to the ratio of the individual IC50 values. After an additional 72 hour incubation, cells were washed once with PBS and stained with 0.5% crystal violet in methanol. Plates were washed gently in water to remove unbound stain and allowed to dry overnight. Crystal violet stain bound to the total protein of attached cells was redissolved in Sorenson's buffer (0.025 M sodium citrate, 0.025 M citric acid in 50% ethanol), and absorbance monitored at 535 nm. Sigmoid curves were fit according to the Hill inhibitory Emax model, and IC50 calculated as the average of three or more separate determinations. Where applicable, the combination index for multiple drug effects was calculated according to the median-effect principle (Chou, T. C. and Talalay, P. 1984) using the CalcuSyn software from Biosoft (Ferguson, Mo.). Briefly, the IC50 and the slope parameter (m) for each agent alone were determined from the median effect plot, an x,y plot of log(D) vs log (fa/fu) based on Chou's median effect equation:
(§9) fa/fu=(D/Dm)^m [Equation 1]
as §4, §5, §6
(§10) The 96-well format was chosen for more detailed drug interaction studies. […] To analyze whether any of these drugs would enhance the activity of NB1011 specifically in tumor cells, two normal cell types, Det551 and CCD18co, were included in the assays.

[3] = system: MCF7TDX cells; test: as above; details: for Average combination index (CI): drug combined with NB1011 at constant molar ratio, 96-well crystal violet, 72 hour incubation; for Interaction: interaction with NB1011
Experimental: as §1, §2, §8, §9, §4, §5, §6, §10

[4] = system: H630R10 cells; test: as above; details: for Average combination index (CI): drug combined with NB1011 at constant molar ratio, 96-well crystal violet, 72 hour incubation; for Interaction: interaction with NB1011
Experimental: as §1, §2, §8, §9, §4, §5, §6, §10

[5] = system: CCD18co normal colon epithelial cells; test: as above; details: for Average combination index (CI): drug combined with NB1011 at constant molar ratio, CCD18co normal cells, 96-well crystal violet, 72 hour incubation; for Interaction: interaction with NB1011, CCD18co
Experimental: as §1, §2, §8, §9, §4, §5, §6, §10

[6] = system: H630R10 cells; test: 384-well alamarBlue interaction screening assay with NB1011; details: drug combined with NB1011, 5-day incubation, average of at least 4 consecutive dose/effect levels
Experimental: as §1, §2, §3, §4, §5, §6, §7

Structure (SMILES)	Combination Index ± s.e.m. [1]	Average combination index (CI) [2]	Interaction [2]	Average combination index (CI) [3]	Interaction [3]	Average combination index (CI) [4]	Interaction [4]	Average combination index (CI) [5]	Interaction [5]	Combination Index ± s.e.m. [6]
N.N.[Cl][Pt][Cl] [Cisplatin]	1.51 ± 0.35	–	–	–	–	–	–	–	–	–
OCCN(CCO)c1nc(N2CCCCC2)c2nc(N(CCO)CCO)nc(N3CCCCC3)c2n1 [Dipyridamole, dipyridamole]	–	1.17	Add	0.51	Syn	0.75	Syn	1.30	Ant	–
COc1cccc2c1C(=O)c1c(O)c3c(c(O)c1C2=O)C[C@@](O)(C(=O)CO)C[C@@H]3O[C@H]1C[C@H](N)[C@H](O)[C@H](C)O1 [Doxorubicin]	–	–	–	–	Ant	–	Ant	–	–	–
CCc1c2c(nc3ccc(OC(=O)N4CCC(N5CCCCC5)CC4)cc13)-c1cc3c(c(=O)n1C2)COC(=O)[C@]3(O)CC [Irinotecan]	–	–	–	–	–	–	–	–	–	1.26 ± 0.20
O=[N+]([O-])c1ccc(CSc2ncnc3c2ncn3C2OC(CO)C(O)C2O)cc1 (stereo not shown) [NBMPR, p-nitrobenzylthioinosine]	–	1.43	Ant	0.57	Syn	0.35	Syn	3.93	Ant	–
O=C1[O][Pt]2([NH][C@@H]3CCCC[C@H]3[NH]2)[O]C1=O [Oxaliplatin]	–	–	–	–	Ant	–	Ant	–	–	–
CC(=O)O[C@H]1C(=O)[C@@]2(C)[C@H]([C@H](OC(=O)c3ccccc3)[C@]3(O)C[C@H](OC(=O)[C@H](O)[C@@H](NC(=O)c4ccccc4)c4ccccc4)C(C)=C1C3(C)C)[C@]1(OC(C)=O)CO[C@@H]1C[C@@H]2O [Taxol]	–	–	–	–	–	–	–	–	–	0.99 ± 0.15
CC[C@]1(O)C[C@@H]2CN(CCc3c([nH]c4ccccc34)[C@@](C(=O)OC)(c3cc4c(cc3OC)N(C)[C@H]3[C@@](O)(C(=O)OC)[C@H](OC(C)=O)[C@]5(CC)C=CCN6CC[C@]43[C@@H]65)C2)C1 [Vinblastine]	–	–	Syn	–	Ant	–	Syn	–	Syn	0.78 ± 0.32
